Laboratory results: ChEMBL document CHEMBL5727836, “Treatment of infectious diseases with glucose uptake inhibitors” (2020)

Assay: ATP Assay: HT1080 cells (as well as other cell types) were plated to confluency in 96-well plates. Cells were exposed to the combination of 10 μM Oligomycin (to block mitochondrial-derived ATP), and the glucose uptake inhibitor compounds for one-hour, after which glycolytically-dervied ATP was measured with the Cell Titer-Glo assay kit (Promega). Dose-response curves of the glucose uptake inhibitor compounds were used to determine the IC50 for GLUT activity.
Settings: HT-1080, 1 h

Row | SMILES | IC50
1 | CC(C)(C)NC(=O)COc1cccc(-c2nc3c(c(Nc4ccc(-c5cn[nH]c5)cc4)n2)COC3)c1 | in the range around 0.055 µM
2 | CC(C)NC(=O)COc1cccc(-c2nc(Nc3ccc(-c4cn[nH]c4)cc3)c3cnn(C)c3n2)c1 | in the range around 0.375 µM
3 | O=C(COc1cccc(-c2nc(Nc3ccc(-c4cn[nH]c4)cc3)c3ccncc3n2)c1)NC1CCC1 | in the range around 0.055 µM
4 | O=C(COc1cccc(-c2nc(Nc3ccc(-c4cn[nH]c4)cc3)c3ncsc3n2)c1)NC1CCC1 | in the range around 0.375 µM
5 | CCC(C)(C)NC(=O)COc1cccc(-c2nc(Nc3ccc(-c4cn[nH]c4)cc3)c3sccc3n2)c1 | in the range around 0.175 µM
6 | CCC(CC)NC(=O)COc1cccc(-c2nc3c(c(Nc4ccc(-c5cn[nH]c5)cc4)n2)COC3)c1 | in the range around 0.055 µM
7 | CC(C)NC(=O)COc1cccc(-c2nc(Nc3ccc4[nH]ncc4c3)c3sccc3n2)c1 | in the range around 0.055 µM
8 | CC(C)NC(=O)COc1cccc(-c2nc(Nc3ccc(-c4cn[nH]c4)cc3)c3ncsc3n2)c1 | in the range around 0.375 µM
9 | CC(C)NC(=O)COc1cccc(-c2nc(Nc3ccc(-c4cn[nH]c4)cc3)c3ccncc3n2)c1 | in the range around 0.055 µM
10 | O=C(COc1cccc(-c2nc(Nc3ccc(-c4cn[nH]c4)cc3)c3ccncc3n2)c1)NC1CCCC1 | in the range around 0.055 µM
11 | CC(=O)N1Cc2nc(-c3cccc(OCC(=O)NC(C)(C)C)c3)nc(Nc3ccc(-c4cn[nH]c4)cc3)c2C1 | in the range around 0.055 µM
12 | O=C(COc1cccc(-c2nc3c(c(Nc4ccc(-c5cn[nH]c5)cc4)n2)COCC3)c1)NC1CCCC1 | in the range around 0.055 µM
13 | CC(C)(C)CNC(=O)COc1cccc(-c2nc3c(c(Nc4ccc(-c5cn[nH]c5)cc4)n2)COC3)c1 | in the range around 0.055 µM
14 | CC(C)CNC(=O)COc1cccc(-c2nc3c(c(Nc4ccc(-c5cn[nH]c5)cc4)n2)COCC3)c1 | in the range around 0.055 µM
15 | CC(C)NC(=O)COc1cccc(-c2nc(Nc3ccc(-c4cn[nH]c4)cc3)c3cnccc3n2)c1 | in the range around 0.055 µM
16 | CC(=O)N1CCc2nc(-c3cccc(OCC(=O)NCC(C)C)c3)nc(Nc3ccc(-c4cn[nH]c4)cc3)c2C1 | in the range around 0.055 µM
17 | CC(=O)N1CCc2nc(-c3cccc(OCC(=O)NC4CCCC4)c3)nc(Nc3ccc(-c4cn[nH]c4)cc3)c2C1 | in the range around 0.055 µM
18 | Cn1ncc2c(Nc3ccc(-c4cn[nH]c4)cc3)nc(-c3cccc(OCC(=O)NC4CCC4)c3)nc21 | in the range around 0.375 µM
19 | CC(C)NC(=O)COc1cccc(-c2nc3c(c(Nc4ccc(-c5cn[nH]c5)cc4)n2)CN(C(=O)C(C)C)CC3)c1 | in the range around 0.055 µM
20 | O=C(CN1CCOCC1)Nc1cccc(-c2nc(Nc3ccc(-c4cn[nH]c4)cc3)c3ccsc3n2)c1 | in the range around 0.175 µM
21 | Cn1ncc2c(Nc3ccc(-c4cn[nH]c4)cc3)nc(-c3cccc(OCC(=O)NC4CCCC4)c3)nc21 | in the range around 0.175 µM
22 | CCC(C)NC(=O)COc1cccc(-c2nc3c(c(Nc4ccc(-c5cn[nH]c5)cc4)n2)COCC3)c1 (stereo not drawn) | in the range around 0.055 µM
23 | Cn1cnc2c(Nc3ccc(-c4cn[nH]c4)cc3)nc(-c3cccc(OCC(=O)NC4CCC4)c3)nc21 | in the range around 0.375 µM
24 | CC(C)CNC(=O)COc1cccc(-c2nc(Nc3ccc(-c4cn[nH]c4)cc3)c3ncsc3n2)c1 | in the range around 0.375 µM

Row | SMILES | IC50
25 | O=C(COc1cccc(-c2nc3c(c(Nc4ccc(-c5cn[nH]c5)cc4)n2)COCC3)c1)NC1CCC1 | in the range around 0.055 µM
26 | CC(C)CNC(=O)COc1cccc(-c2nc(Nc3ccc(-c4cn[nH]c4)cc3)c3cnn(C)c3n2)c1 | in the range around 0.175 µM
27 | CC(C)NC(=O)COc1cccc(-c2nc3c(c(Nc4ccc(-c5cn[nH]c5)cc4)n2)COCC3)c1 | in the range around 0.055 µM
28 | O=C(COc1cccc(-c2nc3c(c(Nc4ccc(-c5cn[nH]c5)cc4)n2)CSC3)c1)NC1CCCC1 | in the range around 0.175 µM
29 | CC(C)(C)NC(=O)COc1cccc(-c2nc(Nc3ccc(-c4cn[nH]c4)cc3)c3sccc3n2)c1 | in the range around 0.175 µM
30 | O=C(COc1cccc(-c2nc3c(c(Nc4ccc(-c5cn[nH]c5)cc4)n2)COC3)c1)NC1CC(F)(F)C1 | in the range around 0.175 µM
31 | O=C(COc1cccc(-c2nc(Nc3ccc(-c4cn[nH]c4)cc3)c3sccc3n2)c1)NC1CCC1 | in the range around 0.175 µM
32 | CC(C)(C)NC(=O)COc1cccc(-c2nc(Nc3ccc(-c4cn[nH]c4)cc3)c3cnccc3n2)c1 | in the range around 0.055 µM
33 | CC(C)CNC(=O)COc1cccc(-c2nc3c(c(Nc4ccc(-c5cn[nH]c5)cc4)n2)COC3)c1 | in the range around 0.055 µM
34 | CC(C)NC(=O)COc1cccc(-c2nc3c(c(Nc4ccc(-c5cn[nH]c5)cc4)n2)CSC3)c1 | in the range around 0.375 µM
35 | CCC(CC)NC(=O)COc1cccc(-c2nc3c(c(Nc4ccc(-c5cn[nH]c5)cc4)n2)CN(C(C)=O)C3)c1 | in the range around 0.055 µM
36 | CCC(C)NC(=O)COc1cccc(-c2nc3c(c(Nc4ccc(-c5cn[nH]c5)cc4)n2)COC3)c1 (stereo not drawn) | in the range around 0.055 µM
37 | O=C(COc1cccc(-c2nc(Nc3ccc(-c4cn[nH]c4)cc3)c3occc3n2)c1)NC1CCC1 | in the range around 0.375 µM
38 | O=C(COc1cccc(-c2nc3c(c(Nc4ccc(-c5cn[nH]c5)cc4)n2)CSC3)c1)NC1CCC1 | in the range around 0.175 µM
39 | CC(C)CNC(=O)COc1cccc(-c2nc(Nc3ccc(-c4cn[nH]c4)cc3)c3ncccc3n2)c1 | in the range around 0.175 µM
40 | CC(C)(C)CNC(=O)COc1cccc(-c2nc3c(c(Nc4ccc(-c5cn[nH]c5)cc4)n2)COCC3)c1 | in the range around 0.055 µM
41 | O=C(COc1cccc(-c2nc(Nc3ccc(-c4cn[nH]c4)cc3)c3occc3n2)c1)NC1CCCC1 | in the range around 0.375 µM
42 | O=C(COc1cccc(-c2nc(Nc3ccc(-c4cn[nH]c4)cc3)c3ncsc3n2)c1)NC1CCCC1 | in the range around 0.175 µM
43 | O=C(COc1cccc(-c2nc(Nc3ccc(-c4cn[nH]c4)cc3)c3sccc3n2)c1)NC1CCCC1 | in the range around 0.055 µM
44 | CC(=O)N1CCc2nc(-c3cccc(OCC(=O)NC(C)(C)C)c3)nc(Nc3ccc(-c4cn[nH]c4)cc3)c2C1 | in the range around 0.055 µM
45 | CC(=O)N1Cc2nc(-c3cccc(OCC(=O)NC(C)C)c3)nc(Nc3ccc(-c4cn[nH]c4)cc3)c2C1 | in the range around 0.175 µM
46 | O=C(COc1cccc(-c2nc(Nc3ccc(-c4cn[nH]c4)cc3)c3sccc3n2)c1)NC1CC1 | 0.75 µM
47 | CC(=O)N1CCc2nc(-c3cccc(OCC(=O)NC(C)C)c3)nc(Nc3ccc(-c4cn[nH]c4)cc3)c2C1 | in the range around 0.175 µM
48 | CCC(CC)NC(=O)COc1cccc(-c2nc3c(c(Nc4ccc(-c5cn[nH]c5)cc4)n2)CN(C(C)=O)CC3)c1 | in the range around 0.055 µM
